Reference: PubChem BioAssay (NCI)
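These data come from cells grown in 96-well plates and exposed to compound for 48 hours at five concentrations. TGI marks complete inhibition of growth.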

Key:
Assay in all cases: NCI tumour cell line growth inhibition, 48 h
EKVX NSCLC = system: EKVX NSCLC
UACC-257 melanoma = system: UACC-257 melanoma
OVCAR-8 ovarian = system: OVCAR-8 ovarian
PC-3 prostate = system: PC-3 prostate
NCI-H226 lung = system: NCI-H226 lung
RPMI-8226 leukemia = system: RPMI-8226 leukemia
OVCAR-5 ovarian = system: OVCAR-5 ovarian
HT29 colon = system: HT29 colon
UACC-62 melanoma = system: UACC-62 melanoma
DU-145 prostate = system: DU-145 prostate
RXF 393 renal = system: RXF 393 renal
A549 NSCLC = system: A549 NSCLC

| Compound | TGI (EKVX NSCLC) [µM] | TGI (UACC-257 melanoma) [µM] | TGI (OVCAR-8 ovarian) [µM] | TGI (PC-3 prostate) [µM] | TGI (NCI-H226 lung) [µM] | TGI (RPMI-8226 leukemia) [µM] | TGI (OVCAR-5 ovarian) [µM] | TGI (HT29 colon) [µM] | TGI (UACC-62 melanoma) [µM] | TGI (DU-145 prostate) [µM] | TGI (RXF 393 renal) [µM] | TGI (A549 NSCLC) [µM] |
| --- | --- | --- | --- | --- | --- | --- | --- | --- | --- | --- | --- | --- |
| CC(C)(C)c1cc(C2COC(=O)COCCOCC(=O)OCCOCCO2)cc(C(C)(C)C)c1O (stereo not drawn) | > 100 | > 100 | > 100 | 63.3 | > 100 | > 100 | 54.8 | > 100 | > 100 | 37.1 | 47 | > 100 |
| COc1ccc2cc(C(=O)NCCc3ccccc3)ccc2c1OC | > 100 | > 100 | > 100 | > 100 | > 100 | > 100 | > 100 | > 100 | > 100 | > 100 | 70.7 | > 100 |
| Cc1ccc(S(=O)(=O)OC2CN3CCC2CC3)cc1 (stereo not drawn) | > 100 | > 100 | > 100 | > 100 | > 100 | > 100 | > 100 | > 100 | > 100 | > 100 | > 100 | > 100 |
| CCCCCCc1cc(C=O)sc1-c1ccc(-c2sc(-c3ccc(-c4ccc(-c5cc(CCCCCC)c(-c6ccc(-c7sc(C=O)cc7CCCCCC)s6)s5)s4)s3)cc2CCCCCC)s1 | > 100 | > 100 | > 100 | > 100 | > 100 | > 100 | > 100 | > 100 | > 100 | > 100 | > 100 | > 100 |
| CCOC(=O)/C(O)=C(\C=N\C(=S)Nc1ccc(Cl)c(Cl)c1)C(=O)OCC | > 100 | > 100 | > 100 | > 100 | > 100 | > 100 | > 100 | > 100 | > 100 | > 100 | > 100 | > 100 |
| CCCCc1cc2c(cc1O)CCC1C2CC[C@@]2(C)C1CC[C@@H]2O (stereo partly drawn) | 33.6 | 35.9 | 43.4 | 35.3 | 40.6 | 39.1 | 36.5 | 50.3 | 29.5 | 35.3 | 22.2 | 29.3 |
| S=C1c2cc(Cl)ccc2NC(=NC2CCCC2)C2CSCN12 (stereo not drawn) | > 100 | > 100 | > 100 | > 100 | > 100 | > 100 | > 100 | > 100 | > 100 | > 100 | > 100 | > 100 |
| CC(=O)c1ccc2c(c1)CC1(C2)Cc2cc3c(cc2C1)C(=O)CC3 (stereo not drawn) | > 89.6 | 29.1 | 19.5 | 17.8 | 2.33 | 3.61 | > 100 | 6.32 | 28.7 | 25.8 | 17.7 | 29.2 |
| CC(=O)C1=CC=C/C1=N\Nc1ccccc1 | 23 | 33.5 | 64.4 | 18.7 | 39.8 | 7.75 | 19.7 | 11.5 | 28.7 | 28.2 | 34.5 | 35.1 |
